From article PMC5338303, “Unveiling the Metabolic Changes on Muscle Cell Metabolism Underlying p-Phenylenediamine Toxicity” (Frontiers in Molecular Biosciences, 2017)
Several values for one entry are separate records, joined by “and”; a condition that tells them apart may be missing. Identical values can stand only once. Like-named read-outs stand apart in the source and are kept apart here.

Columns and labels:
Wistar female rats [1] = assay: Toxicity after oral administration; general appearance, behavior and signs of morbidity (Irwin test); assay type: in vivo, rat; design: key to Myoglobiunuria: ++ represents the presence of myoglobinuria; settings: for Ataxic Gait / Hypotonic Gait: animals affected/group; for Hipoactivity / Piloerection: duration
Protocol: The study was approved by the Ethics Committee on Animal Experimentation of University of Navarra. Wistar female rats, with a body weight of 160 g ± 20% (8 weeks old), were supplied by Harlan (Harlan Laboratories, Indianapolis, IN). The animals were housed in polycarbonate cages with stainless steel covers in a room under controlled temperature conditions (22 ± 3°C), controlled relative humidity (50 ± 20%) and light (12 h light–dark cycle). Air was exchanged 15 times/h sterile food supplied by Harlan (Harlan Laboratories, Indianapolis, IN) and controlled water was available ad libitum. The rats were housed in the study room for 5 days prior to the beginning of treatment in order to allow acclimatization to the environmental conditions. Finally, three rats were randomly assigned to each studied group corresponding to different PPD doses (10, 20, 40, and 60 mg/Kg) and control (DMSO).
(§1) The animals were divided into groups of three rats at random. A control group receiving the vehicle and four groups receiving PPD at several concentrations 10, 20, 40, and 60 mg/kg at single dose were included (Figure 1). The compound was administered in a volume of 300 μl of 100% DMSO by gavage. Animals were evaluated based on general appearance, behavior and signs of morbidity using the Irwin test (Castagné et al., [2012]), immediately following administration, 30 min, 1, 2, 4, and 8 h after the administration (Figure 1). All of the animals were weighed just before the acclimatization period, before administration and 24, 48, and 72 h after administration. At the end of the observation period (24, 48, and 72 h after administration), all the animals were anesthetized and blood samples were collected from tail and retro orbital sinus and centrifuged at 2000 × g for 30 min at 4°C to recover the serum (Figure 1). The serum was frozen and stored at −20°C until determination of biochemical parameters such as urea, creatinin, Glucose, aspartate aminotransferase (AST), alanine aminotransferase (ALT) and creatine kinase (CK), lactate dehydrogenase (LDH), at 24, 48, and 72 h before sacrificed in a CO2 chamber and autopsied. All of the tissues were observed grossly. Ovaries, kidneys, liver, spleen, heart, and lung were weighed and the relative organ weights were calculated. Serum CK and LDH levels were measured.

Wistar female rats [2] = assay: Serum biochemical parameters (AST, ALT, CK, LDH); assay type: in vivo, rat; settings: 40 and 60 mg/kg
Protocol: as §1

Wistar female rats [3] = assay: Blood packed cell volume, hemoglobin, organ weights and histology; assay type: in vivo, rat
Protocol: as §1

C2C12 cells [4] = assay: Cell viability assay (MTT); assay type: cell-based, Mus musculus mouse; settings: for IC50: read-out: IC50 (cell proliferation, MTT); for IC80: read-out: IC80 (cell proliferation, MTT)
Protocol: C2C12 cells from Mus musculus mouse were cultured in DMEM (Dulbecco's Modified Eagle's medium) with 10 mg/ml of streptomycin, 2 mM glutamine, 10,000 units/ml of penicillin and 10% heat-inactivated FCS, until subconfluence was reached. For biochemical characterization, C2C12 cells were cultured in DMEM, supplemented with 4 mM asparagine without glutamine, 10 mg/ml of streptomycin, 10,000 units/ml of penicillin and 10% heat-inactivated FCS.
The absorbance of MTT [3-(4,5-Dimethylthiazol-2-Yl)-2,5-Diphenyltetrazolium Bromide] dye staining of living cells was used to determine cell viability (Pachon et al., [2007]; Pachón et al., [2008]). Here, 3.5 × 10^3 C2C12 cells/well were cultured in 96 well-plates at different PPD concentrations (from 1 to 100 μg/ml). An ELISA plate reader (Tecan Sunrise MR20-301, TECAN, Austria) was used to determine the relative cell viability, the absorbance was determined at 550 nm. Cell survival rate relative to untreated cells after 24 h of treatment was used to estimate the concentrations that caused 50% (IC50) and 80% (IC80) of inhibition of C2C12 at that time.

C2C12 cells [5] = assay: Cell cycle analysis (FACS, propidium iodide); assay type: cell-based, Mus musculus mouse; settings: vs untreated cells
Protocol: Cell cycle was evaluated by measuring FACS (fluorescence-activated cell sorter) in an Epics XL flow cytometer at 488 nm (Coulter Corporation, Hialeah, FL, USA). This technique allows for the semiquantitation of DNA in each cell and permits to separate cells in G0 or G1 phase (one copy of DNA), G2 or M phase (after DNA duplication) and S phase (the amount of DNA per cell is in an intermediate state between the two previous conditions). For these measurements, C2C12 cells were cultivated in 6 well-plates (4 × 10^5 cells/well each) with 2 ml of culture medium. After 24 h of plated, PPD corresponding to IC50 and IC80 concentrations was added and cells were incubated for 24 h, in parallel, control C2C12 cells were cultured without PPD. All experiments were performed five times with two replicates for each experiment.

C2C12 cells [6] = assay: Annexin V-Fluorescein isothiocyanate binding assay (apoptosis); assay type: cell-based, Mus musculus mouse
Excerpt: This technique permits to determine whether a cell is at early or late apoptosis or necrotic state. In early apoptosis, Phosphatidylserine (PS) is translocated to the outer membrane allowing PS-annexin V-Fluorescein Isothiocyanate (FITC) binding. In late apoptosis, as well as in necrotic processes, cell membranes lose their integrity allowing PI to access the nucleus and bind the DNA bases. Next, by using FACS analysis one can determine PI and annexin V-FITC staining accumulation to differentiate non-apoptotic cells (PI– and annexin V–) from early apoptotic (PI− and annexin V+) and necrotic or late apoptotic (PI+) cells (Cortés et al., [2012]). The same amount of C2C12 cells mentioned for cell cycle assay was treated with PPD as previously described. Cells were then collected and resuspended in binding buffer (10 mM Hepes/NaOH, pH7.4, 140 mM NaCl, 2.5 mM CaCl2). Annexin V-FITC conjugate (1 μg/ml) was added and incubated for 30 min at room temperature in the dark. Just before FACS analysis [Bender medSystems (Innogenetics) human Annexin V-FITC Kit cat No. BMS306FI], cells were stained with 1 mg/ml PI solution. In each experiment ~20 × 10^3 cells per condition were analyzed and the experiment was performed five times.

C2C12 cells [7] = assay: Biochemical characterization: glucose and lactate concentrations in culture medium; assay type: cell-based, Mus musculus mouse; settings: PPD at IC50, 24 h
Protocol: Glucose and lactate concentrations were determined from culture medium at initial and end-time points by using Cobas Mira Plus chemistry analyzer (HORIBA ABX, Montpellier, France; Cisternas et al., [2016]).
(§2) Cells were cultured in DMEM (Biowithaker) °supplemented with 10% dialyzed heat-inactivated Fetal Bovine Serum (FBS), glucose (10 mM, 50% isotope enrichment [1,2-^13C2]-glucose), asparagine (20 mg/ml), penicillin (100 U/ml), and streptomycin (100 μg/ml). […] Initially each flask contained 10^6 cells and the incubation was carried out for 24 h. To separate medium and cell pellets, cells were centrifuged at the end of incubation (3000 × g, 5 min). Afterwards, pellet and medium were stored at −20°C for metabolite isolations.

[8] = system: central carbon metabolic pathways of C2C12 cells; assay: Mass isotopomer distribution analysis (MIDA) with [1,2-13C2]-glucose, GC/MS; assay type: cell-based, Mus musculus mouse
Protocol: To track and measure the substrate carbon flux through central carbon metabolic pathways of C2C12 cells when treated with PPD, mass isotopomer distribution analysis (MIDA), and metabolic modeling approaches were used.
as §2
• Glucose. A mixed DOWEX 50-DOWEX 1 ionic exchange column was used to corroborate that the original medium contained 50% of labeled glucose ([1,2-^13C2] D-glucose). First, 500 μl of medium and after 6 ml of milliQ water were passed through the column and were collected into a glass tube. Next, it was lyophilized for 12 h to eliminate the remaining liquid and the dried sample was stored. Finally, hydroxyl-amine in pyridine and acetic anhydride were used to derivatize glucose to its aldonitrile form. The ion cluster was set to m/z 328 (C1–C6, chemical ionization; Wamelink et al., [2008]). • Glycogen. Glycogen for biochemical and isotopomerics distribution determination was extracted as described in Burchert ([2007]), by direct digestion of sonicated extracts with amyloglucosidase. Measurement of glucose released from glycogen was done by using the isotopomer [U-13C6-1,2,3,4,5,6,6-D7]D-glucose (or [U-13C-D7]-glucose as shorter name) as recovery standard and internal standard quantification procedures. […] We monitored the ion cluster around the m/z 328 (C1–C6, chemical ionization; Wamelink et al., [2008]). • Lactate. […] Next, the m/z 328 was monitored (C1–C3, chemical ionization, Wamelink et al., [2008]). • Ribose from RNA. […]

Q: What does the source list for `Nc1ccc(N)cc1` [PPD, p-phenylenediamine]?
A: Myoglobiunuria (Wistar female rats [1]; 10 mg/kg single oral dose): ++; Ataxic Gait (Wistar female rats [1]; 10 mg/kg single oral dose): 0/3; Hypotonic Gait (Wistar female rats [1]; 10 mg/kg single oral dose): 0/3; Hipoactivity (Wistar female rats [1]; 10 mg/kg single oral dose): 10 h; Piloerection (Wistar female rats [1]; 10 mg/kg single oral dose): 2 to 4 h; Myoglobiunuria (Wistar female rats [1]; 20 mg/kg single oral dose): ++; Ataxic Gait (Wistar female rats [1]; 20 mg/kg single oral dose): 0/3; Hypotonic Gait (Wistar female rats [1]; 20 mg/kg single oral dose): 0/3; Hipoactivity (Wistar female rats [1]; 20 mg/kg single oral dose): 10 h; Piloerection (Wistar female rats [1]; 20 mg/kg single oral dose): 2 to 4 h; Hipoactivity (Wistar female rats [1]; 40 mg/kg single oral dose): 24 h; Piloerection (Wistar female rats [1]; 40 mg/kg single oral dose): Until death; Ataxic Gait (Wistar female rats [1]; 60 mg/kg single oral dose): 0/3; Hypotonic Gait (Wistar female rats [1]; 60 mg/kg single oral dose): 3/3; Hipoactivity (Wistar female rats [1]; 60 mg/kg single oral dose): 48 h; Piloerection (Wistar female rats [1]; 60 mg/kg single oral dose): Until death; gait (Wistar female rats [1]; 60 mg/kg, after 48 h, disappeared after 72 h): ataxic gait; signs observed at lower doses (Wistar female rats [1]; 10 and 20 mg/kg, until 10 h of treatment): depressed activity and some of they had brown color urine or myoglobinuria; signs observed at higher doses (Wistar female rats [1]; 40 and 60 mg/kg, until 4 h of treatment): total loss of equilibrium, hypotonic gait and piloerection; urine color (Wistar female rats [1]; after 24 h of treatment, disappears at 48 and 72 h): all animals had urine brown color but in absence of hematuria; evolution of body weight (Wistar female rats [1]; all groups, 10-60 mg/kg, up to 72 h): normal; persistence of muscular weakness (Wistar female rats [1]; rat, in vivo): 3 days; ALT in serum (Wistar female rats [2]; 24, 48 and 72 h): increased; AST in serum (Wistar female rats [2]; 24, 48 and 72 h): increased; CK in serum (Wistar female rats [2]; 24 h): increased; LDH in serum (Wistar female rats [2]; 24 h): increased; organs weight (Wistar female rats [3]; 48 and 72 h, any condition): No significant differences; Blood packed cell volume (Wistar female rats [3]; any condition (10-60 mg/kg)): No significant differences; hemoglobin levels (Wistar female rats [3]; any condition (10-60 mg/kg)): No significant differences; Histological analysis of extracted organs (Wistar female rats [3]; vs controls): patterns similar to controls; IC50 (C2C12 cells [4]; C2C12, 24 h): 154 µM; IC80 (C2C12 cells [4]; C2C12, 24 h): 201 ± 8 µM; IC50 (C2C12 cells [4]; C2C12, 48 h): 108 ± 8 µM; IC80 (C2C12 cells [4]; C2C12, 48 h): 182 ± 12 µM; IC50 (C2C12 cells [4]; C2C12, 72 h): 59 ± 1 µM; IC80 (C2C12 cells [4]; C2C12, 72 h): 91 ± 7 µM; decrease in the percentage of cells in G0/G1 phases (C2C12 cells [5]; PPD at IC50, 24 h): 19%; increase in the population in S phase (C2C12 cells [5]; PPD at IC50, 24 h): 13%; decrease in the percentage of cells in G0/G1 phases (C2C12 cells [5]; PPD at IC80, 24 h): 32%; increase in the population in S phase (C2C12 cells [5]; PPD at IC80, 24 h): 28%; early apoptosis (C2C12 cells [6]; PPD at IC50, 24 h): 34.7%; late apoptosis (C2C12 cells [6]; PPD at IC50, 24 h): 18.8%; early apoptosis (C2C12 cells [6]; PPD at IC80, 24 h): 20.1%; late apoptosis (C2C12 cells [6]; PPD at IC80, 24 h): 23.9%; glucose consumption (Δglucose) (C2C12 cells [7]): 2,42 ± 0,26 mM; lactate production (Δlactate) (C2C12 cells [7]): 1,5 ± 0,3 mM; total glycogen reservoirs ([8]; 24 h, no significant differences between groups): 10,1 μg; Glycolitic rate = [Δlactate × m2lactate]/[Δglucose × m2glucose] ([8]; PPD at IC50, 24 h, not significantly different from control): 28,8 ± 14%; ox/non-ox ratio of pentose-phosphate pathway = m1 + m3 / (m2 + m3 + 2m4) ([8]; RNA ribose, PPD at IC50, 24 h): 2,224 ± 0,189 and 2.224 ± 0.189
